“And” between values parts separate entries of the source, which are not always exact repeats. Equal values may be shown once.
What was measured:
[1] = Release rate experiment, USP <711> Dissolution, Apparatus 2, 50 rpm, delayed-release method B; assay type: physicochemical
Procedure: Regarding to the measurement to the release rate in the present invention, the release rate experiment in 0.1N hydrochloric acid solution and pH6.8 phosphate buffer is conducted referring to USP<711>DISSOLUTIO and using Apparatus 2 with a rotate speed of 50 rpm by DELAYED-RELEASE DOSAGE FORMS method B.

[2] = Tingling sensation evaluation after oral administration; assay type: in vivo
Procedure: The evaluation method of the tingling sensation in the present invention is that: a subject respectively administrates unsustained-release microencapsulated material containing a certain amount of β-alanine and sustained-release microencapsulated β-alanine. The time, intensity and duration of having the abnormal sensation are recorded.
The tingling sensation after oral administration of the β-alanine products A and D in Table 1 was evaluated according to a tingling sensation evaluation method, and an administration dosage, based on the β-alanine, is 22.8 mg/Kg (body weight).
In the tingling evaluation experiment in Table 5, the dosage of the subject was 45.7 mg/kg (body weight).

[3] = Size distribution of β-alanine before and after sustained-release microencapsulation; assay type: physicochemical

- Release in 0.1N hydrochloric acid solution (in words) ([1]; 0.1N hydrochloric acid solution): quickly and completely released
- Release in pH6.8 phosphate buffer (in words) ([1]; pH6.8 phosphate buffer): quickly and completely released
- Administration evaluation: Intensity ([2]; 22.8 mg/Kg body weight based on β-alanine, one value per subject, 0 no sensation, 1-5 acceptable, 6-10 unacceptable): 6 (2×) and 7
- Duration of the abnormal sensation (lasting for) ([2]; 22.8 mg/Kg, per subject): 45 min and lasting for 30 min. and 1 h
- Size distribution 300-450 μm ([3]; fraction 300-450 μm): 0%
- Size distribution 450-900 μm ([3]; fraction 450-900 μm): 43.7%
- Size distribution 900-1000 μm ([3]; fraction 900-1000 μm): 56.3%
- Dissolution in water (in words): easy to be dissolved in water
SMILES: NCCC(=O)O [Product A, β-alanine]
- Time of having the abnormal sensation (onset) ([2]; 22.8 mg/Kg, per subject): 15 min and sensation in the hands, face and ears in 10 min, and 25 min
